Measured values from patent US20250161285A1, “BACTERIAL BIOFILM INHIBITORS” (THE RESEARCH INSTITUTE AT NATIONWIDE CHILDREN'S HOSPITAL, priority 2022, published 2025).

What was measured:
[1] = tested on: S. Typhimurium ATCC 14028 (JSG210) biofilms; assay: Biofilm inhibition assay (crystal violet staining); type: cell-based, Salmonella enterica serovar Typhimurium; settings: for IC50: inhibition of S. Typhimurium biofilm formation, compound present 24 h, crystal violet OD570, mean ± standard deviation; for anti-biofilm activity (inhibition and dispersion) in words: S. Typhimurium biofilms in vitro; for fold improvement of IC50 versus comparator: 6a vs 4c, 6b vs 4d, 6g vs 4c and 4d, 8i vs 8b
Method: Inhibition of biofilm formation is assessed by growing bacteria in a 96-well plate in the absence (control) or presence of test compounds. After 24 hours, the wells are washed to remove planktonic bacteria, and the remaining surface attached bacteria (biofilm) are stained with crystal violet (CV). The wells are then washed again to remove excess CV, and the remaining CV is solubilized with a solution of acetic acid and then quantified by spectrophotometry at 570 nm. A dose response curve is then constructed from which an IC50 value is determined.
(§1) Salmonella biofilm growth and crystal violet staining. […] For biofilm assays, individual bacterial colonies were picked and used to inoculate LB broth for overnight liquid cultures, which were grown at 37° C. with aeration using a rotating drum. […] Biofilm plates were then submerged in dH2O to wash away any remaining non-adherent bacteria and heat fixed (1h, 60° C.). Biofilms were then stained with a 33% crystal violet solution (6 mL PBS, 3.3 mL crystal violet, 333 μL methanol, 333 μL isopropanol) for 5 min. and washed twice by submerging in dH2O before releasing the bound dye with 33% glacial acetic acid. Biofilm growth was then quantified by measuring the optical density of the solubilized dye at 570 nm using a spectrophotometer (Molecular Devices, SpectraMax M5).
(§2) Biofilm Inhibition and Dispersion Assays and IC50/EC50 Determination. […] Biofilms were then grown as described above for a total of 24 h prior to CV staining. […] Biofilms were then incubated for an additional 24 h in the presence of compounds prior to CV staining. IC50/EC50 values were calculated by plotting normalized compound activity (percent biofilm formed and percent remaining, respectively) as a function of log10 compound concentration and fitting a dose response curve (log[inhibitor] vs. normalized response, variable slope).

[2] = tested on: S. Typhimurium ATCC 14028 (JSG210) biofilms; assay: Biofilm dispersion assay on pre-formed biofilms (crystal violet staining); type: cell-based, Salmonella enterica serovar Typhimurium; settings: for EC50: 50% dispersion of biofilms established 24 h, then 24 h with compound, crystal violet OD570, mean ± standard deviation; for fold improvement of dispersion activity (EC50) versus comparator: 4d vs 1, 6g vs 4c and 4d, lead compounds vs parent compound
Method: as §1, §2

## CN(Cc1ccccc1)CC1CCN(CCc2ccccc2F)CC1 [Compound 3.1a]
[1]
  IC50: 5 µM
[2]
  EC50: > 75 µM

## Cc1ccccc1CN(C)CC1CCN(CCc2ccccc2F)CC1 [Compound 3.1b]
[1]
  IC50: 4.4 µM
[2]
  EC50: > 75 µM

## CN(Cc1ccccc1F)CC1CCN(CCc2ccccc2F)CC1 [Compound 3.1c]
[1]
  IC50: 14.9 µM
[2]
  EC50: > 75 µM

## CN(Cc1ccccc1Cl)CC1CCN(CCc2ccccc2F)CC1 [Compound 3.1d]
[1]
  IC50: 6.3 µM
[2]
  EC50: > 75 µM

## CN(Cc1ccccc1Br)CC1CCN(CCc2ccccc2F)CC1 [Compound 3.1e]
[1]
  IC50: 6.5 µM
[2]
  EC50: 42 µM

## CN(Cc1ccccc1I)CC1CCN(CCc2ccccc2F)CC1 [Compound 3.1f]
[1]
  IC50: 4.4 µM
[2]
  EC50: 53 µM

## CN(Cc1cccc(Cl)c1)CC1CCN(CCc2ccccc2F)CC1 [Compound 3.1h]
[1]
  IC50: 5.6 µM
[2]
  EC50: > 75 µM

## CN(Cc1ccc(F)cc1)CC1CCN(CCc2ccccc2F)CC1 [Compound 3.1i]
[1]
  IC50: 5.5 µM
[2]
  EC50: > 75 µM

## CN(Cc1cccc(Cl)c1Cl)CC1CCN(CCc2ccccc2F)CC1 [Compound 3.1l]
[1]
  IC50: 5.6 µM
[2]
  EC50: 43 µM

## CN(Cc1ccccc1)CC1CCN(CCc2ccc(Cl)c(Cl)c2)CC1 [Compound 3.2a]
[1]
  IC50: 0.59 µM
[2]
  EC50: 35 µM

## CN(Cc1ccccc1I)CC1CCN(CCc2ccc(Cl)c(Cl)c2)CC1 [Compound 3.2d]
[1]
  IC50: 3.4 µM
[2]
  EC50: 26 µM

## CN(Cc1cccc(Cl)c1)CC1CCN(CCc2ccc(Cl)c(Cl)c2)CC1 [Compound 3.2f]
[1]
  IC50: 2.3 µM
[2]
  EC50: 21 µM

## CN(Cc1ccc(Cl)c(Cl)c1)CC1CCN(CCc2ccc(Cl)c(Cl)c2)CC1 [Compound 3.2h]
[1]
  IC50: 0.96 µM
[2]
  EC50: 17 µM

## CN(Cc1ccccc1)CC1CCN(CCc2ccc(Cl)cc2Cl)CC1 [Compound 3.3a]
[1]
  IC50: 4.3 ± 2.1 µM
[2]
  EC50: 11 ± 7 µM

## CN(Cc1ccccc1Cl)CC1CCN(CCc2ccc(Cl)cc2Cl)CC1 [Compound 3.3c]
[1]
  IC50: 11.3 ± 7.3 µM
[2]
  EC50: 14 ± 10 µM

## CN(Cc1ccccc1I)CC1CCN(CCc2ccc(Cl)cc2Cl)CC1 [Compound 3.3d]
[1]
  IC50: 10.1 ± 4.5 µM
[2]
  EC50: > 50 µM

## CN(Cc1cccc(Cl)c1Cl)CC1CCN(CCc2ccc(Cl)cc2Cl)CC1 [Compound 3.3i]
[1]
  IC50: 6.5 ± 2.5 µM
[2]
  EC50: 8 ± 4 µM

## CN(Cc1cccc2ccccc12)CC1CCN(CCc2ccccc2F)CC1 [Compound 3.4a]
[1]
  IC50: 4.2 ± 2.9 µM
[2]
  EC50: 12 ± 8 µM

## CN(Cc1ccccn1)CC1CCN(CCc2ccccc2F)CC1 [Compound 3.8a]
[1]
  IC50: > 20 µM
[2]
  EC50: > 50 µM

## CN(Cc1ccncc1)CC1CCN(CCc2ccccc2F)CC1 [Compound 3.8c]
[1]
  IC50: > 20 µM
[2]
  EC50: > 50 µM

## CN(Cc1ccsc1)CC1CCN(CCc2ccccc2Cl)CC1 [Compound 4a]
[1]
  IC50: 6 ± 1.4 µM
[2]
  EC50: 232 ± 6 µM

## CN(Cc1ccsc1)CC1CCN(CCc2ccccc2Br)CC1 [Compound 4b]
[1]
  IC50: 7.2 ± 1.6 µM
[2]
  EC50: 308 ± 11 µM

## CN(Cc1ccsc1)CC1CCN(CCc2cccc(F)c2)CC1 [Compound 4c]
[1]
  IC50: 6.9 ± 0.1 µM
[2]
  EC50: 388 ± 19 µM

## CN(Cc1ccsc1)CC1CCN(CCc2ccc(F)cc2)CC1 [Compound 4d]
[1]
  IC50: 16.8 ± 3.4 µM
[2]
  EC50: 235 µM
  fold improvement of dispersion activity (EC50) versus comparator: ca. 3.5

## CN(Cc1ccsc1)CC1CCN(CCc2cc(F)cc(F)c2)CC1 [Compound 4e]
[1]
  anti-biofilm activity (inhibition and dispersion) in words: inactive
  IC50: > 200 µM
[2]
  EC50: > 12000 µM

## COc1ccccc1CCN1CCC(CN(C)Cc2ccsc2)CC1 [Compound 4f]
[1]
  IC50: 16.9 ± 5.2 µM
[2]
  EC50: 11760 ± 77 µM

## CN(Cc1ccsc1)CC1CCN(CCc2ccccc2)CC1 [Compound 4g]
[1]
  IC50: 21.2 ± 2.6 µM
[2]
  EC50: > 12000 µM

## CNCC1CCN(CCc2ccccc2F)CC1 [Compound 5]
[1]
  anti-biofilm activity (inhibition and dispersion) in words: abrogated activity
[1]; Salmonella enterica
  IC50: > 200 µM
[2]; Salmonella enterica
  EC50: > 12000 µM

## CN(Cc1ccsc1)CC1CCN(CCc2cccc(Cl)c2)CC1 [Compound 6a]
[1]
  fold improvement of IC50 versus comparator: over two-fold
  IC50: 2 µM
[2]
  EC50: 135 ± 12 µM

## CN(Cc1ccsc1)CC1CCN(CCc2ccc(Cl)cc2)CC1 [Compound 6b]
[1]
  fold improvement of IC50 versus comparator: over four-fold
  IC50: 3 ± 1.4 µM
[2]
  EC50: 69 ± 4 µM

## CN(Cc1ccsc1)CC1CCN(CCc2cccc(Br)c2)CC1 [Compound 6c]
[1]
  IC50: 3.6 µM
[2]
  EC50: 83 ± 6 µM

## CN(Cc1ccsc1)CC1CCN(CCc2ccc(Br)cc2)CC1 [Compound 6d]
[1]
  IC50: 3 ± 0.7 µM
[2]
  EC50: 57 ± 4 µM

## CN(Cc1ccsc1)CC1CCN(CCc2cc(Cl)cc(Cl)c2)CC1 [Compound 6e]
[1]
  IC50: 1.6 µM
[2]
  EC50: 45 µM

## CN(Cc1ccsc1)CC1CCN(CCc2cc(Br)cc(Br)c2)CC1 [Compound 6f]
[1]
  IC50: 3.4 µM
[2]
  EC50: 42 µM

## CN(Cc1ccsc1)CC1CCN(CCc2ccc(F)c(F)c2)CC1 [Compound 6g]
[1]
  fold improvement of IC50 versus comparator: over two-fold
  IC50: 3 ± 0.2 µM
[2]
  EC50: 87 ± 13 µM
  fold improvement of dispersion activity (EC50) versus comparator: over two-fold

## CN(Cc1ccsc1)CC1CCN(CCc2c(F)cccc2F)CC1 [Compound 6h]
[1]
  IC50: 6.3 ± 0.6 µM
[2]
  EC50: 138 ± 18 µM

## CN(Cc1ccsc1)CC1CCN(Cc2ccccc2F)CC1 [Compound 6i]
[1]
  IC50: 8.8 ± 0.8 µM
[2]
  EC50: 125 ± 6 µM

## CN(Cc1ccsc1)CC1CCN(Cc2ccccc2Cl)CC1 [Compound 6j]
[1]
  IC50: 2.7 ± 0.7 µM
[2]
  EC50: 1810 ± 176 µM

## CN(Cc1ccsc1)CC1CCN(Cc2ccccc2)CC1 [Compound 6k]
[1]
  IC50: 26.7 ± 1.2 µM
[2]
  EC50: > 12000 µM

## CN(Cc1ccsc1)CC1CCN(CCCc2ccccc2F)CC1 [Compound 6l]
[1]
  IC50: 11.5 ± 2.7 µM
[2]
  EC50: 221 ± 17 µM

## CN(Cc1ccsc1)CC1CCN(CCCc2ccccc2Cl)CC1 [Compound 6m]
[1]
  IC50: 5.4 ± 1.2 µM
[2]
  EC50: 59 ± 4 µM

## CN(Cc1ccsc1)CC1CCN(CCCc2ccccc2)CC1 [Compound 6n]
[1]
  IC50: 78.1 ± 3.7 µM
[2]
  EC50: > 12000 µM

## CN(Cc1ccsc1)CC1CCN(CCc2ccc(Cl)c(Cl)c2)CC1 [Compound 7a]
[1]
  IC50: 1.4 µM
[2]
  EC50: 45 ± 2 µM

## CN(Cc1ccsc1)CC1CCN(CCc2ccc(Cl)cc2Cl)CC1 [Compound 7c]
[1]
  IC50: 2.5 ± 0.5 µM
[2]
  EC50: 22 ± 2 µM

## CN(Cc1ccsc1)CC1CCN(CCc2ccccc2C(F)(F)F)CC1 [Compound 7e]
[1]
  IC50: 12.7 ± 4.1 µM
[2]
  EC50: 60 ± 2 µM

## CN(Cc1ccsc1)CC1CCN(Cc2ccccc2Br)CC1 [Compound 7f]
[1]
  IC50: 4.9 ± 0.8 µM
[2]
  EC50: 79 ± 3 µM

## CN(Cc1ccsc1)CC1CCN(Cc2cccc(Cl)c2)CC1 [Compound 7h]
[1]
  IC50: 5.2 ± 1.3 µM
[2]
  EC50: 299 ± 21 µM

## CN(Cc1ccsc1)CC1CCN(Cc2cccc(Br)c2)CC1 [Compound 7i]
[1]
  IC50: 6.5 ± 2.9 µM
[2]
  EC50: 142 ± 9 µM

## CN(Cc1ccsc1)CC1CCN(Cc2ccc(F)cc2)CC1 [Compound 7j]
[1]
  IC50: 12.9 ± 1.4 µM
[2]
  EC50: 443 ± 52 µM

## CN(Cc1ccsc1)CC1CCN(Cc2ccc(Cl)cc2)CC1 [Compound 7k]
[1]
  IC50: 5.9 ± 2.8 µM
[2]
  EC50: 934 ± 26 µM

## CN(Cc1ccsc1)CC1CCN(Cc2ccc(Br)cc2)CC1 [Compound 7l]
[1]
  IC50: 8.5 ± 1.8 µM
[2]
  EC50: 127 ± 13 µM

## CN(Cc1ccsc1)CC1CCN(Cc2cc(F)cc(F)c2)CC1 [Compound 7m]
[1]
  IC50: 14.2 ± 1.7 µM
[2]
  EC50: > 12000 µM

## CN(Cc1ccsc1)CC1CCN(Cc2c(F)cccc2F)CC1 [Compound 7n]
[1]
  IC50: > 200 µM
[2]
  EC50: > 12000 µM

## CN(Cc1ccsc1)CC1CCN(Cc2ccc(F)c(F)c2)CC1 [Compound 7o]
[1]
  IC50: 7.2 ± 1.8 µM
[2]
  EC50: 3800 ± 204 µM

## CN(Cc1ccsc1)CC1CCN(Cc2cc(Cl)ccc2Cl)CC1 [Compound 7p]
[1]
  IC50: 15.8 ± 1.4 µM
[2]
  EC50: 196 ± 27 µM

## CN(Cc1ccsc1)CC1CCN(Cc2cccc(Cl)c2Cl)CC1 [Compound 7r]
[1]
  IC50: 2.7 ± 1.4 µM
[2]
  EC50: 70 ± 8 µM

## CN(Cc1ccsc1)CC1CCN(Cc2ccc(Br)c(Br)c2)CC1 [Compound 7s]
[1]
  IC50: 11.9 ± 1.7 µM
[2]
  EC50: 32 ± 1 µM

## CN(Cc1ccsc1)CC1CCN(Cc2cccc(F)c2F)CC1 [Compound 7t]
[1]
  IC50: 146 µM
[2]
  EC50: 870 ± 79 µM

## CN(Cc1ccsc1)CC1CCN(Cc2ccccc2C(F)(F)F)CC1 [Compound 7u]
[1]
  IC50: 20.9 µM
[2]
  EC50: 140 ± 39 µM

## CN(Cc1ccsc1)CC1CCN(CCc2ccccc2I)CC1 [Compound 8a]
[1]
  IC50: 4.3 µM
[2]
  EC50: 60 ± 2 µM

## CN(Cc1ccsc1)CC1CCN(CCc2cccc(I)c2)CC1 [Compound 8b]
[1]
  IC50: 4 ± 0.7 µM
[2]
  EC50: 44 ± 2 µM

## CN(Cc1ccsc1)CC1CCN(CCc2ccc(I)cc2)CC1 [Compound 8c]
[1]
  IC50: 2.6 µM
[2]
  EC50: 89 ± 10 µM

## CN(Cc1ccsc1)CC1CCN(Cc2ccccc2I)CC1 [Compound 8d]
[1]
  IC50: 5.4 ± 0.5 µM
[2]
  EC50: 79 ± 5 µM

## CN(Cc1ccsc1)CC1CCN(Cc2cccc(I)c2)CC1 [Compound 8e]
[1]
  IC50: 10 ± 4.5 µM
[2]
  EC50: 92 ± 3 µM
